{"source": "patent US8575068B2", "about": "“Pyrazinothiazines having herbicidal action” (BASF SE, priority 2010, dated 2013)", "system": "Galium aparine", "assay": "Greenhouse post-emergence herbicidal activity against GALAP", "assay_type": "in vivo", "conditions": "application rate 0.5 kg/ha, scale 0 to 100", "text": "The seeds of the test plants were sown separately for each species. For the post-emergence treatment, the test plants were first grown to a height of 3 to 15 cm, depending on the plant habit, and only then treated with the active ingredients which had been suspended or emulsified in water. For this purpose, the test plants were either sown directly and grown in the same containers, or they were first grown separately as seedlings and transplanted into the test containers a few days prior to treatment. Depending on the species, the plants were kept at 10-25° C. or 20-35° C. The test period extended over 2 to 4 weeks. During this time, the plants were tended, and their response to the individual treatments was evaluated. Evaluation was carried out using a scale from 0 to 100. 100 means no emergence of the plants, or complete destruction of at least the aerial moieties, and 0 means no damage, or normal course of growth. A good herbicidal activity is given at values of at least 70 and a very good herbicidal activity is given at values of at least 85. The plants used in the greenhouse experiments belonged to the following species: [table]", "data": [{"compound": "COCCOc1cccc(C2=C(O)c3nccnc3N(CC(F)F)S2(=O)=O)c1C(F)(F)F", "note": "[I-6, 1-(2,2-difluoroethyl)-3-[3-(2-methoxyethoxy)-2-(trifluoromethyl)phenyl]-2,2-dioxo-pyrazino[2,3-c]thiazin-4-ol]", "values": [{"measurement": "herbicidal activity against GALAP", "value": "very good (a very good herbicidal activity is given at values of at least 85)"}]}]}
